Measurements: patent US11207312B2, “Metallo-beta-lactamase inhibitors and methods of use thereof” (priority 2017, dated 2021)

Columns and labels:
[1] = tested on: P. aeruginosa MB9798 (efflux+, IMP-1 plasmid); conditions: for MB9798 MITC95 P. aeruginosa uM Efflux WT: efflux + (MB9798) strain, imipenem at 2 μg/mL, in the presence of a class A, C, D serine β-lactamase inhibitor closely related to relebactam; for Efflux ratio: fold difference between efflux+ (MB9798) and efflux− (MB9799) strains
Text: (§1) The strain background is Pseudomonas aeruginosa PAO1. A wild-type (M135919) and an isogenic strain in which multiple efflux pumps have been disrupted genetically were used. The MBL IMP-1, obtained from a clinical isolate was introduced into the strain pair by the following process:
(§2) The plasmid DNA was transformed into parental MB5919 (oprD+, efflux+, inducible AmpC) and MB5890 (oprD+, efflux−, inducible AmpC) isogenic strains by electroporation.
(§3) The strain set was then used as a pair to determine the effect of metallo-β-lactamase inhibitors of Formula I on the MIC of imipenem and/or ceftazidime. A fixed concentration of antibiotic is included in standard microbroth MIC tests, usually at the CLSI breakpoint concentration, A fixed amount of a class A/C beta-lactamase inhibitor is also included to inhibit the resident Pseudomonas AmpC enzyme. A serial titration of the metallo-β-lactamase inhibitor was included and the concentration of metallo-β-lactamase inhibitor which restores susceptibility of the strain to the included antibiotic was recorded. That concentration of metallo-β-lactamase inhibitor was then compared between the two strains to determine the fold difference between the efflux+(MB9798) and efflux−(MI39799) strains, which indicates the extent to which the MBLi is subject to efflux.

[2] = biological target: IMP-1 (Serratia marcescens, UniProt P52699); experiment: biochemical; conditions: CCF2-FA fluorescence assay, 2 hours at 25° C.; read-out: IMP1 IC50
IMP-1, sequence (P52699 whole entry, looked up, species assumed): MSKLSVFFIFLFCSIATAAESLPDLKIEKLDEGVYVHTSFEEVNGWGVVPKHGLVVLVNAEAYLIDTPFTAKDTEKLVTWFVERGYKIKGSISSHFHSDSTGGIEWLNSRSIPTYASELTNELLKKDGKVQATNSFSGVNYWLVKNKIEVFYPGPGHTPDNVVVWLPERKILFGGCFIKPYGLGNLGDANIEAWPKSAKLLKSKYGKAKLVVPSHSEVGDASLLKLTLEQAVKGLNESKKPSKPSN
Protocol: (§4) The Class B enzyme activities were measured in the presence of the test inhibitor in a fluorescence assay against a commercially available substrate consisting of a cephalosporin core linking 7-hydroxycoumarin to fluorescein (CCF2-FA). The enzyme (NDM-1, IMP-1 or VIM-1) and the substrate were diluted in 100 mM KH2PO4 buffer (pH 7) containing 0.005% Tween-20 and 10 μM ZnSO4. In the assay, the final concentration of enzyme was 1 pM, 2 pM and 30 pM for NDM-1, IMP-1 and VIM-1, respectively, and the final concentration of CCF2-FA was 1.25 μM. The test inhibitor was dissolved in dimethylsulfoxide and diluted 1:50 in the assay, resulting in a final concentration range of 20 μM to 0.00063 μM. In a 384-well microplate, the test inhibitor was incubated with the metallo-β-lactamase enzyme and the substrate for 2 hours at 25° C. Fluorescence at 460 nm following excitation at 405 nm was measured. The IC50 value was determined from semi-logarithmic plots of enzyme inhibition versus inhibitor concentration, with a curve generated using a 4-parameter fit.

[3] = biological target: VIM-1 (Pseudomonas aeruginosa (strain ATCC 15692 / DSM 22644 / CIP 104116 / JCM 14847 / LMG 12228 / 1C / PRS 101 / PAO1), UniProt A0A0F7KYQ8); experiment: biochemical; conditions: CCF2-FA fluorescence assay, 2 hours at 25° C.; read-out: VIM1 IC50
Protocol: as §4

[4] = tested on: Klebsiella pneumoniae expressing VIM-1 (IHMA599644); type: cell-based; conditions: with imipenem 1 μg/ml; 95% inhibition of bacterial growth
Protocol: (§5) The bacterial strains tested included the clinical strains Escherichia coil expressing NDM-1 (CLB30005, CLB30016), Serratia marcescens expressing IMP-1 (CL5741), and Klebsiella pneumoniae expressing VIM-1 (H-LMA599644). Inhibitor activity was measured in the presence and absence of imipenem in a 384-well microplate.
(§6) The clinical strains CLB30016, CL5741 and IHMA599644 were grown on trypticase soy agar containing 5% sheep's blood. The bacteria on agar plates were incubated at 35° C. with humidity overnight. The following day, individual colonies from each clinical strain were picked and resuspended in 5 ml saline to attain an OD600 of […], for CLB30016, C15741 and IHMA599644, respectively. These were further diluted 1:100 into 1.1× CAMHB and used to inoculate the test wells as described below.
(§7) Imipenem in 10 mM 3-(N-morpholino)propanesulfonic acid (MOPS, pH 7) was stored in single use aliquots at −80° C. […] On the day of the assay, 4 μl of antibiotic was added to 45 μl of bacteria followed by 1 μl of test compound and mixed by pipetting and with an orbital shaker. The concentration of antibiotic used in the assay was 1 μg/ml. Microplates were covered and incubated at 35° C. for 22 hours to 24 hours. At the end of the incubation, absorbance was determined using a spectrophotometer. The synergistic concentration of MBLI was determined by identifying the lowest concentration of test compound in the presence of a given concentration of antibiotic that was required to inhibit 95% of the growth of the bacteria. The results for Examples 1-209 are reported in Table 1, expressed as the concentration of compound that potentiated the action of antibiotic (imipenem) affecting 95% inhibition of bacterial growth (MITC95).

[5] = tested on: Escherichia coli expressing NDM-1 (CLB30016); type: cell-based; conditions: with imipenem 1 μg/ml; 95% inhibition of bacterial growth
Protocol: as §5, §6, §7

[6] = tested on: Serratia marcescens expressing IMP-1 (CL5741); type: cell-based; conditions: with imipenem 1 μg/ml; 95% inhibition of bacterial growth
Protocol: as §5, §6, §7

[7] = tested on: P. aeruginosa MB9799 (efflux-, IMP-1 plasmid); type: cell-based, Pseudomonas aeruginosa; conditions: efflux − (MB9799) strain; imipenem at 2 μg/mL; in the presence of a class A, C, D serine β-lactamase inhibitor closely related to relebactam
Text: as §1, §2, §3

[8] = biological target: NDM-1 (Klebsiella pneumoniae, UniProt C7C422); experiment: biochemical; type: biochemical; conditions: CCF2-FA fluorescence assay, 2 hours at 25° C.
NDM-1, sequence (C7C422 whole entry, looked up, species assumed): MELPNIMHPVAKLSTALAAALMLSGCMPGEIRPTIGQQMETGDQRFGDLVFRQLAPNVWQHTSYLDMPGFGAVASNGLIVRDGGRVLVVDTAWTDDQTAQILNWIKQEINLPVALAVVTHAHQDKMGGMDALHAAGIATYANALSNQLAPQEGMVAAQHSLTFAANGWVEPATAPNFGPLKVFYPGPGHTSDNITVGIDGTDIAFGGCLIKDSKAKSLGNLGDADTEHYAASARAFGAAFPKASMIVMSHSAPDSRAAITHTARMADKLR
Protocol: as §4

[9] = biological target: VIM-2 (Escherichia coli, UniProt Q5U7L7); experiment: biochemical; conditions: CCF2-FA fluorescence assay; read-out: VIM2 IC50

Structure (SMILES) | MB9798 MITC95 P. aeruginosa uM Efflux WT [1] | Efflux ratio [1] | IC50 [2] | IC50 [3] | IHMA599644 K. pneumoniae MITC95 VIM [4] | CLB30016 E. coli MITC95 NDM [5] | CL5741 S. marcescens MITC95 IMP [6] | MB9799 MITC95 P. aeruginosa uM Efflux Mutant [7] | IC50 [8] | IC50 [9]
NC[C@@H](O)CNS(=O)(=O)c1ccc(N2CC[C@H](CN)[C@@H](F)C2)c(-c2nn[nH]n2)c1S(N)(=O)=O (stereo in doubt) [Example 13, N^1—((R)-3-amino-2-hydroxypropyl)-4-(trans-4-(aminomethyl)-3-fluoropiperidin-1-yl)-3-(2H-tetrazol-5-yl)benzene-1,2-disulfonamide] | 0.78 µM | 2.00 | 3.7 nM | 0.14 nM | 0.78 µM | 1.56 µM | 0.78 µM | 0.39 µM | 3.01 nM | 4.12 nM
NC[C@@H](O)CNS(=O)(=O)c1ccc(N2CC[C@@H](N)[C@H](F)C2)c(-c2nn[nH]n2)c1S(N)(=O)=O [Example 2] | 0.78 µM | 1.00 | 3.37 nM | 0.17 nM | 0.78 µM | 0.20 µM | 0.78 µM | 0.78 µM | 6.51 nM | 4.04 nM
NC[C@@H](O)CNS(=O)(=O)c1ccc(N2CCC(F)(CN)CC2)c(-c2nn[nH]n2)c1S(N)(=O)=O [Example 3] | 0.78 µM | 2.00 | 3.95 nM | 0.61 nM | 0.78 µM | 0.78 µM | 1.56 µM | 0.39 µM | 2.43 nM | 3.68 nM
CC1CC(CN)CCN1c1ccc(S(=O)(=O)NC[C@H](O)CN)c(S(N)(=O)=O)c1-c1nn[nH]n1 (stereo partly drawn) [Example 4, N1-((R)-3-amino-2-hydroxypropyl)-4-(4-(aminomethyl)-2-methylpiperidin-1-yl)-3-(2H-tetrazol-5-yl)benzene-1,2-disulfonamide] | 1.56 µM | 2.00 | 9.4 nM | 0.18 nM | 3.13 µM | 3.13 µM | 1.56 µM | 0.78 µM | 2.17 nM | 2.4 nM
NC[C@@H](O)CNS(=O)(=O)c1ccc(N2CC[C@H](CN)[C@H](O)C2)c(-c2nn[nH]n2)c1S(N)(=O)=O [Example 9, N^1—((R)-3-amino-2-hydroxypropyl)-4-(cis-4-(aminomethyl)-3-hydroxypiperidin-1-yl)-3-(2H-tetrazol-5-yl)benzene-1,2-disulfonamide] | 1.56 µM | 2.00 | 15.5 nM | 0.26 nM | 1.56 µM | 0.39 µM | 0.78 µM | 0.78 µM | 3.46 nM | 6.41 nM
NC[C@@H](O)CNS(=O)(=O)c1ccc(N2CC[C@H](CN)[C@@H](O)C2)c(-c2nn[nH]n2)c1S(N)(=O)=O [Example 10] | 3.13 µM | 4.00 | 28.9 nM | 0.43 nM | 1.56 µM | 0.39 µM | 0.39 µM | 0.78 µM | 16.4 nM | 27 nM
NC[C@@H](O)CNS(=O)(=O)c1ccc(N2C[C@@H]3[C@@H](CN)[C@@H]3C2)c(-c2nn[nH]n2)c1S(N)(=O)=O [Example 11] | 6.25 µM | 4.00 | 35.5 nM | 2.03 nM | 0.78 µM | 0.78 µM | 1.56 µM | 1.56 µM | 8.96 nM | 24.7 nM
NC[C@@H](O)CNS(=O)(=O)c1ccc(N2CCC3(CC2)CC3N)c(-c2nn[nH]n2)c1S(N)(=O)=O (some centres unmarked) [Example 12] | 1.56 µM | 2.00 | 4.08 nM | 1.48 nM | 1.56 µM | 0.78 µM | 1.56 µM | 0.78 µM | 1.51 nM | 17.6 nM
NCCC1CCN(c2ccc(S(=O)(=O)N[C@@H]3CCNC3)c(S(N)(=O)=O)c2-c2nn[nH]n2)CC1 [Example 16, (R)-4-(4-(2-aminoethyl)piperidin-1-yl)-N^1-(pyrrolidin-3-yl)-3-(2H-tetrazol-5-yl)benzene-1,2-disulfonamide] | 0.78 µM | 1.00 | 1.85 nM | 0.08 nM | 1.56 µM | 1.17 µM | 1.56 µM | 0.78 µM | 0.72 nM | 1.61 nM
NCCNS(=O)(=O)c1ccc(N2CCC(O)(CN)CC2)c(-c2nn[nH]n2)c1S(N)(=O)=O [Example 17] | 1.56 µM | 2.00 | 26.9 nM | 15.1 nM | 1.56 µM | 0.78 µM | 0.78 µM | 0.78 µM | 17 nM | 64.6 nM
C[C@@H](CN)NS(=O)(=O)c1ccc(N2CCC(O)(CN)CC2)c(-c2nn[nH]n2)c1S(N)(=O)=O [Example 18, (S)-4-(4-(aminomethyl)-4-hydroxypiperidin-1-yl)-N1-(1-aminopropan-2-yl)-3-(2H-tetrazol-5-yl)benzene-1,2-disulfonamide] | 0.78 µM | 1.00 | 1.48 nM | 0.65 nM | 1.56 µM | 0.78 µM | 0.78 µM | 0.78 µM | 0.43 nM | 4.8 nM
